This test relates to Hypercholesterolemic Rabbit. Nature of the test: Antiatherosclerotic and antihypercholesterolemic effects in the hypercholesterolemic (2% cholesterol diet) rabbit, six weeks of treatment. It is filed as in vivo, New Zealand white male rabbits. The conditions noted are these: mean ± standard deviation; for % of thoracic arota covered by plaque / Aortic arch cholesterol: 6 weeks treatment; for % of thoracic arota covered by plaque: Sudan Black stain, cut-weight planimetry, positive control Group 2: 70.57±9.54; for Aortic arch cholesterol: positive control Group 2: 15.82±4.64; for Serum Cholesterol: after 6 wks treatment, positive control Group 2: 2475±434. The method, then: Four groups of New Zealand white male rabbits (weighing 1-2 kg) were treated for six weeks according to the following treatment schedule [all injections were in volumes corresponding to 0.1 ml/kg subcutaneously (s.c.)]: • Group 1 maintained on normal rabbit chow; received polyethylene glycol 300 (PEG ) injection twice daily. • Group 2 (Positive Control) maintained on rabbit chow containing 2% by weight cholesterol; received PEG injection twice daily. • Group 3 maintained on rabbit chow containing 2% by weight cholesterol; received 4,7-dihydro-1,6-dimethyl-4-(2-methylphenyl)-3-(2-methylpropyl)-1H-pyrozolo[3,4-b]pyridine-5-carboxylic acid methyl ester monohydrochloride (compound 1A) at a dose of 1 mg/kg in PEG twice daily. • Group 4 maintained on rabbit chow containing 2% by weight cholesterol; received compound 1A at a dose of 10 mg/kg in PEG twice daily.
The body weight of each rabbit was measured weekly. At three week and six week intervals after the start of treatment, blood samples were obtained from each rabbit and determinations of platelet aggregation, serum cholesterol, triglycerides, electrolyte concentrations and hematological parameters were performed.
Six weeks after the start of treatment, the animals were sacrificed. Aortic arches and thoracic aortas were removed and were dissected free of extraneous tissues. The aortic arches were weighed, homogenized in isopropanol, and determinations of cholesterol, triglycerides and electrolyte concentrations were performed. Thoracic aortas were slit down the ventral surface and stained for lipoproteins and lipids by immersion for 5 min in Sudan Black according to the method of Gradwohl (Gradwohl's Clinical Laboratory Methods and Diagnosis (1980) Vol. 1, Edition 8, Chapter 25, pg 771; Sonnenwerth and Jarett, editors, The C.V. Mosby Company, St. Louis, Toronto, London). The percentage of luminal surface covered by atherosclerotic plaque was assessed by "cut-weight" planimetry of the projected image according to the method of Willis et al. (Arteriosclerosis 5, 250 (1985)) whereby the photographic image was projected at a magnification of 7 to 10 and the outer border of the tissue and the boundary between plaque and uninvolved tissue were traced and the appropriate areas were cut out and weighed.

Where [1] appears, read: Group 3: 1 mg/kg bid s.c. in PEG.
The mark [2] stands for this setting: Group 4: 10 mg/kg bid s.c. in PEG.

The values that follow come from patent EP0355234A1, “Pyrazolopyridine derivatives as antiatherosclerotic and antihypercholesterolemic agents” (MERRELL DOW PHARMACEUTICALS INC., priority 1988, dated 1990).

Counter-ions that a name gives are not always drawn.

As to `COC(=O)C1=C(C)Nc2c(c(CC(C)C)nn2C)C1c1ccccc1C` (stereo not drawn) [Compound 1A, 4,7-dihydro-1,6-dimethyl-4-(2-methylphenyl)-3-(2-methylpropyl)-1H-pyrozolo[3,4-b]pyridine-5-carboxylic acid methyl ester monohydrochloride], under setting [1], the “% of thoracic arota covered by plaque” value came to 34.33±19.03 %, the Aortic arch cholesterol came out at 9.57±1.38 µg/mg wet wt and the “Serum Cholesterol” value amounted to 1919 ± 345 mg/dL. Besides, under setting [2], the “% of thoracic arota covered by plaque” value came to 36.71±9.95 %, the Aortic arch cholesterol stood at 9.27±1.91 µg/mg wet wt and the “Serum Cholesterol” value was 1774 ± 300 mg/dL.
